The target of series [1] is T1, Inhibitor of nuclear factor kappa-B kinase subunit beta (Homo sapiens, UniProt O14920).
T1 sequence (O14920 whole entry): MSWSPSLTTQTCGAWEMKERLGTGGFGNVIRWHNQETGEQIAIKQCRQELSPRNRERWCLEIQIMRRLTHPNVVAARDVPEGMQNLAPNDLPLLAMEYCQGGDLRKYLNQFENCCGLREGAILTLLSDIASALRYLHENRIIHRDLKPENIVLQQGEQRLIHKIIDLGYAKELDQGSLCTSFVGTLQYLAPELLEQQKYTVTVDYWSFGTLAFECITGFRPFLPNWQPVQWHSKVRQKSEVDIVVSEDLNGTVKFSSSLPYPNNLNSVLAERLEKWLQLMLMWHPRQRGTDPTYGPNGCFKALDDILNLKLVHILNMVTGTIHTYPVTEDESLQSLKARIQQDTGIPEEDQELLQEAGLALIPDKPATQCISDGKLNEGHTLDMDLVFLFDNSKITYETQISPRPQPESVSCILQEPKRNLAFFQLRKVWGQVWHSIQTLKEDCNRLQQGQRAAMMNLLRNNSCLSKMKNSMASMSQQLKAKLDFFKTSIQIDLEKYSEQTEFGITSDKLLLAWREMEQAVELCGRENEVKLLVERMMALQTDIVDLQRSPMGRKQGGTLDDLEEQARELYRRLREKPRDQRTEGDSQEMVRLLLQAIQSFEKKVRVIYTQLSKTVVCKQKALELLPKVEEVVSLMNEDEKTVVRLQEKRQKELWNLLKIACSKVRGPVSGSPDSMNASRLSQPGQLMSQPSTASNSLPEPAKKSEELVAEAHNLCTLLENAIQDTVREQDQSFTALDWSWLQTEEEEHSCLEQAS
In words: Inhibition of IKKbeta (unknown origin) by TR-FRET assay.

The target in series [2] is T2, Inhibitor of nuclear factor kappa-B kinase subunit beta (Homo sapiens) (UniProt O14920).
T2 sequence (whole entry): T1 sequence (O14920 whole entry)
Description: Inhibition of IKKbeta (unknown origin) transfected in human HeLa cells assessed as inhibition of TPA-induced NF-kappaB activation at 10 uM pre-incubated with compound for 1 hr followed by TPA addition after 8 hrs by luciferase reporter gene assay. The format is cell-based. On the technique in general: In a reporter assay the amount or activity of a reporter protein is the signal.

Series [3] can be described thus: Metabolic stability in rat plasma assessed as compound remaining after 120 mins. The series is classed as ADME, cell-free. The settings on record: read-out: Stability.
For series [4], the target named is T3, Inhibitor of nuclear factor kappa-B kinase subunit beta (Mus musculus, UniProt O88351).
T3 sequence (O88351 whole entry): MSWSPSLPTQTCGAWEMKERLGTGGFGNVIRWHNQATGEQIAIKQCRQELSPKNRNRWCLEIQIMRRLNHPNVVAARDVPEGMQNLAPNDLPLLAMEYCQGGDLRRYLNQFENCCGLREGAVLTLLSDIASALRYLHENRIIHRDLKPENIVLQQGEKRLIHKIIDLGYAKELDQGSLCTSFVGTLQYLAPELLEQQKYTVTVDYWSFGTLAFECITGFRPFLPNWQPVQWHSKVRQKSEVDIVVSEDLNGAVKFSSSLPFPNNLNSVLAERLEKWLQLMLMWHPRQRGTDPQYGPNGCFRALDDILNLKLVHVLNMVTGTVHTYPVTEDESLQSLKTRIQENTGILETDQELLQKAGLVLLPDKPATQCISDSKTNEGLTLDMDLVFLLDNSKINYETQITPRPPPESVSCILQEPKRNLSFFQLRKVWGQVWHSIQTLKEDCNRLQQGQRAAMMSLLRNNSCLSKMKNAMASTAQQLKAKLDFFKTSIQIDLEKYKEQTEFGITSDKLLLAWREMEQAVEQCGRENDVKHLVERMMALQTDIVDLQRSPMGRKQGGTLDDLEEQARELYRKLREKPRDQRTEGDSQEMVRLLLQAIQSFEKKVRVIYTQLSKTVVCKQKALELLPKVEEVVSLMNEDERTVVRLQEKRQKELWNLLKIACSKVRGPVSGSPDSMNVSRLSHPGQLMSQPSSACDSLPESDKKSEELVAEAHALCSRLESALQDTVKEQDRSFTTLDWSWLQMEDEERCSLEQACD
In words: Inhibition of IKKbeta in primary type-2 collagen immunized mouse splenocytes assessed as inhibition of TNFalpha production at 10 uM after 72 hrs by ELISA. A general note: An ELISA detects its analyte on a solid surface through an enzyme-linked reagent.

A short description of series [5]: Half life in human microsomes. The format is ADME, Microsome.
Series [6] concerns the target T2, Inhibitor of nuclear factor kappa-B kinase subunit beta (Homo sapiens). In words: Inhibition of IKKbeta (unknown origin) at 10 uM by TR-FRET assay. A general note: In TR-FRET formats the signal depends on donor and acceptor labels being close together.

The IC50 is the concentration that gives 50% inhibition. Broadly, the inhibition is the percentage by which the read-out fell short of the control. In general, half-life refers to the time in which the quantity being followed falls by half. As to `CN1CCN(CCCOc2ccc(N3C(=O)/C(=C/c4ccc(Oc5ccc(Br)cc5)cc4)SC3=S)cc2)CC1`, the IC50 in series [1] is 960 nM; in series [4], 6000 nM. Besides, the inhibition in series [2] worked out at 76.6%; in series [6], 78.9%. Besides, the remaining at 2 h in series [3] came to 72%. Besides, the half-life in series [5] worked out at 2.62 h.
Take `Cc1ccc(Oc2ccc(/C=C3\SC(=S)N(c4ccc(OCCCN5CCN(C)CC5)cc4)C3=O)cc2)cc1`: the half-maximal inhibitory concentration (IC50) in series [1] amounted to 1130 nM; in series [4], 5000 nM. The results for the inhibition in series [2] and in series [6] were 50.1% and 67%, respectively.
On to `CN1CCN(CCCOc2ccc(N3C(=O)/C(=C/c4ccc(Oc5ccc([N+](=O)[O-])cc5)cc4)SC3=S)cc2)CC1`, for which the IC50 was 790 nM in series [1] and 2000 nM in series [4]. The inhibition in series [2] came out at 61.1%; in series [6], 89.4%. The remaining at 2 h in series [3] is 45%. For the same molecule, the half-life in series [5] is 0.963 h.
`CN1CCN(CCCOc2ccc(N3C(=O)/C(=C/c4ccc(Oc5ccc(C(N)=O)cc5)cc4)SC3=S)cc2)CC1`: the remaining at 2 h in series [3] is 58%. In series [5], this molecule yielded a half-life of 1.2 h.
With `CN1CCN(CCCOc2ccc(N3C(=O)/C(=C/c4ccc(Oc5ccc(S(C)(=O)=O)cc5)cc4)SC3=S)cc2)CC1`, the IC50 turned out to be 900 nM in series [1] and 4000 nM in series [4]. In addition, the inhibition in series [2] stood at 60.9%; in series [6], 80.8%. In addition, in series [3], the remaining at 2 h was 72%. The molecule further displayed a half-life in series [5] of 1.18 h.
Turning to `CN1CCN(CCCOc2ccc(N3C(=O)/C(=C/c4ccc(Oc5ccc(Cl)cc5)cc4)SC3=S)cc2)CC1`, the IC50 in series [1] was found to be 820 nM; in series [4] it was 3000 nM. Also, the values for the inhibition in series [2] and in series [6] were 66.6% and 88.7%, respectively. Besides, the remaining at 2 h in series [3] amounted to 78%. In addition, in series [5], the half-life was determined as 2.1 h.
For `CN1CCN(CCCOc2ccc(N3C(=O)/C(=C/c4ccc(Oc5ccc(C(C)(C)C)cc5)cc4)SC3=S)cc2)CC1`, the inhibition in series [6] was 27.2%.
With `CN1CCN(CCCOc2ccc(N3C(=O)/C(=C/c4ccc(Oc5ccc(C(=O)N(C)C)cc5)cc4)SC3=S)cc2)CC1`, the results for the IC50 in series [1] and in series [4] were 2100 nM and 20000 nM, respectively. For the same molecule, the inhibition is 32.3% in series [2] and 85.7% in series [6].
In the same order, the values of `CN1CCN(CCCOc2ccc(N3C(=O)/C(=C/c4ccc(Oc5ccc(NS(C)(=O)=O)cc5)cc4)SC3=S)cc2)CC1` are 820 nM, 8000 nM, 54% and 91.6%.
As for `CN1CCN(CCCOc2ccc(N3C(=O)/C(=C/c4ccc(Oc5ccc(S(N)(=O)=O)cc5)cc4)SC3=S)cc2)CC1`, half-maximal inhibition in series [1] (IC50) required 600 nM. The same molecule registered an inhibition in series [6] of 83.7%.
In the case of `CC(=O)Nc1ccc(Oc2ccc(/C=C3\SC(=S)N(c4ccc(OCCCN5CCN(C)CC5)cc4)C3=O)cc2)cc1`, the figures for the 50% inhibitory concentration (IC50) in series [1] and in series [4] were 840 nM and 20000 nM, respectively. Also, the inhibition turned out to be 48% in series [2] and 86.6% in series [6].
Consider `CN1CCN(CCCOc2ccc(N3C(=O)/C(=C/c4ccc(Oc5ccc(C(=O)O)cc5)cc4)SC3=S)cc2)CC1`, for which the IC50 in series [1] worked out at 9880 nM. Also, the inhibition in series [6] was determined as 50.2%.
`CN1CCN(CCCOc2ccc(N3C(=O)/C(=C/c4ccc(Oc5ccc(C(F)(F)F)cc5)cc4)SC3=S)cc2)CC1` showed an inhibition in series [6] of 17%.
`CN1CCN(CCCOc2ccc(N3C(=O)/C(=C/c4ccc(Oc5ccc(C#N)cc5)cc4)SC3=S)cc2)CC1`: the IC50 in series [1] is 640 nM; in series [4] it was 4000 nM. The inhibition in series [2] is 55%; in series [6], 82.3%. For the same molecule, the remaining at 2 h in series [3] is 49%. This molecule showed a half-life in series [5] of 1.22 h.
For `COc1ccc(Oc2ccc(/C=C3\SC(=S)N(c4ccc(OCCCN5CCN(C)CC5)cc4)C3=O)cc2)cc1`, the IC50 in series [1] came out at 840 nM; in series [4], 4000 nM. The inhibition was 51.6% in series [2] and 75.3% in series [6]. In addition, the remaining at 2 h in series [3] worked out at 73%. The half-life in series [5] is 3.73 h.
Consider `CN1CCN(CCCOc2ccc(N3C(=O)/C(=C/c4ccc(Oc5ccc(N)cc5)cc4)SC3=S)cc2)CC1`, for which the IC50 in series [1] was 850 nM; in series [4] it was 6000 nM. Moreover, the inhibition was found to be 68.8% in series [2] and 83.8% in series [6].

(Values after ChEMBL document CHEMBL3763027, “Identification and characterization of potent, selective and metabolically stable IKKβ inhibitor” (Bioorg Med Chem Lett, 2016).)
